Test results: paper PMC6134994, “Discovery of Potent Disheveled/Dvl Inhibitors Using Virtual Screening Optimized With NMR-Based Docking Performance Index” (Frontiers in Pharmacology, 2018)

Key:
[1] = target: T1, mZO1-PDZ1 (mouse ZO-1 first PDZ domain) (Mus musculus, UniProt P39447); experiment: NMR chemical shift perturbation (1H-15N HSQC)
T1 construct: gene Tjp1
T1 sequence (P39447 18-110): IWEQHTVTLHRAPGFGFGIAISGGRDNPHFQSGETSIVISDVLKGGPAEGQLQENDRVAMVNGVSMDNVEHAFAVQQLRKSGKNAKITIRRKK

[2] = target: T2, hDvl1-PDZ (human Dvl1 PDZ domain) (Homo sapiens, UniProt O14640, C338A/W339T); experiment: NMR chemical shift perturbation at […] equivalents (averaged normalized shift); type: binding
T2 construct: PDZ domain, residues 246–340
T2 sequence (O14640 246-340 C338A/W339T): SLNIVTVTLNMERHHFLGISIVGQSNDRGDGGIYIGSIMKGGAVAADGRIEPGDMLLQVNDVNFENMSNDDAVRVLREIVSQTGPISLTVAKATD

| Compound | NMR chemical shift perturbation (1H-15N HSQC) [1] | Δδave/ppm [2] |
| --- | --- | --- |
| O=C(Cc1ccccc1)Nc1cccc(C(=O)Nc2ccccc2C(=O)O)c1 [CalBioChem-322338] | residues surrounding the canonical binding site of mZO1-PDZ1 showed substantial CSP upon CalBioChem-322338 |  |
| CC(=O)C(=NNc1cccc(S(=O)(=O)Nc2ccccc2C(=O)O)c1)C(=O)c1ccccc1 [NPL-3009] |  | 0.044 ppm |
